# Reference: publication PMC6849653, “Volasertib preclinical activity in high-risk hepatoblastoma” (Oncotarget, 2019)
# “Also recorded” adds a separate entry of the source. Where two headings read alike, the source gives them in different places.
# Tests used:
# Huh-6 = assay: 60-agent chemical screen, cell viability (Cell-Titer Glo), Huh-6; type: cell-based; settings: Homo sapiens, 60-agent screen, 72 hours, a value of 10,000 indicates that the drug did not inhibit viability, read-out: absolute IC50, Huh-6
# Experimental: (§2) On day 0, cells were trypsinized and plated into a white walled 384-well plate containing pre-diluted known concentrations of various drugs. After 72 hours, an equal volume of Cell-Titer Glo 2.0 (G9243, Promega) was added to each well, incubated at room temperature while rocking in the dark for 15 minutes, followed by luminescence acquisition with a BioTek Synergy HT plate reader (BioTek, Winooski, VT).
# HB-279 [1] = assay: Cell proliferation study, HB-279; type: cell-based, human; settings: 72 h drug exposure, Cell-Titer Glo, average of quadruplicates, read-out: absolute IC50, HB-279
# Experimental: (§1) On day 0, cells were trypsinized and plated into white walled 384-well plates. On day 1, when cells were 70% confluent, volasertib (S2235, SelleckChem, Houston, TX), SN38 (S4908, SelleckChem) or vincristine (S1241, SelleckChem) suspended in DMSO were added to plates using a Tecan D300e drug printer (Tecan Life Sciences, Switzerland), ensuring less than 1% DMSO. […] Absolute IC50 values were calculated using GraphPad Prism (GraphPad, San Diego, CA). Synergy values were calculated using CalcuSyn (Biosoft, Cambridge, UK) software.
# HB-214 PDX = assay: HB-214 hepatoblastoma PDX in athymic nude mice; type: in vivo; settings: volasertib 30 mg/kg IV 2qwk, irinotecan 10 mg/kg IP q5d, alone or combined; 6 mice per group
# Experimental: These fragments were engrafted in the interscapular region of 6-8 week-old female athymic nude mice (Athymic NudeFoxn1^nu, ENVIGO, Gannat, France). After latency period, mice with a subcutaneously growing tumor between 62 and 256 mm^3 were allocated to each treatment arm according to their tumor volume to obtain homogenous mean and median tumor volume in each arm. Treatments were randomly attributed to boxes housing up to five mice. […] Tumor volume (TV) was evaluated by caliper measurement, 2 or 3 times a week during latency and treatment period. The formula Total Volume (TV) (mm^3) = [length (mm) x width (mm)^2]/2 was used, where the length and the width are the longest and the shortest diameters of the tumor. The tumor growth delay index (TGDI) was calculated as the median growth delay in the treated group divided by the median growth delay in the control group, and represented the x-fold time to reach 5-fold the TV at D0.The ratio between the mean TV of a treated group (T) and the mean TV of the control group (C) was calculated at each measurement, and represented the antitumoral activity of the tested compound(s). The tumor growth rate, evaluated by the formula [DT/T0]-1 where DT is the delta of tumor size between the considered day and the day of enrolment and T0 is mean TV at D0, gives the percentage of growth compared with the initial day. […]
# HB-295 = assay: Cell proliferation study, HB-295; type: cell-based, human; settings: 72 h drug exposure, Cell-Titer Glo, average of quadruplicates, read-out: absolute IC50, HB-295
# Experimental: as §1
# [2] = test system: hepatoblastoma cell lines HepG2, Huh-6 and HB-214 versus hepatocytes; assay: 60-agent chemical screen, hepatoblastoma cell lines taken together / versus hepatocytes
# Experimental: as §2
# HB-243 = assay: Cell proliferation study, HB-243; type: cell-based, human; settings: 72 h drug exposure, Cell-Titer Glo, average of quadruplicates, read-out: absolute IC50, HB-243
# Experimental: as §1
# PLK2 = test system: PLK2; parameters: method as in PMID 19383823; settings: read-out: cell-free enzyme IC50, PLK2; cited from earlier work
# [3] = cited from earlier work
# normal human hepatocytes = assay: 60-agent chemical screen, cell viability (Cell-Titer Glo), hepatocytes; type: cell-based; settings: Hepatocyte;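 further: cells were plated onto pre-diluted drug concentrations in 384-well plates, and viability was read after 72 h as CellTiter-Glo 2.0 luminescence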
# Experimental: as §2
# HB-214 [4] = assay: Cell proliferation study, HB-214; type: cell-based; settings: Homo sapiens; 72 h drug exposure, Cell-Titer Glo, average of quadruplicates; read-out: absolute IC50, HB-214
# Experimental: as §1
# HB-279 [5] = assay: Cell cycle analysis by flow cytometry (PI staining), HB-279; type: cell-based, human; settings: for Percent of cells in S phase / Percent of cells in G2/M / Percent of cells in G1: HB-279, 72 hour treatment, 150 nM volasertib, 3 nM SN38, N=3; for Percent of cells in S phase: DMSO 16.1; for Percent of cells in G2/M: DMSO 26.8; for Percent of cells in G1: DMSO 56.5; for cell cycle arrest as compared to vehicle control: clinically achievable concentrations, 72 hours
# Experimental: After a 72-hour drug treatment, cells were collected and fixed in ice cold 70% ethanol. After rehydration, cells were stained using the Guava Cell Cycle Reagent for Flow Cytometer (4500-0220, MilliporeSigma, Germany) according to the product protocol. Cells were analyzed for propidium iodide using the Guava EasyCyte 8HT (MilliporeSigma). Flow data was analyzed using CytoBank software (Cytobank, Santa Clara, CA).
# SK-Hep1 = test system: SK-Hep1; parameters: method as in PMID 27904765; settings: hepatocellular carcinoma cell line; cited from earlier work
# HB-214 [6] = assay: 60-agent chemical screen, cell viability (Cell-Titer Glo), HB-214; type: cell-based; settings: Homo sapiens; 60-agent screen, 72 hours; a value of 10,000 indicates that the drug did not inhibit viability; read-out: absolute IC50, HB-214;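 further: viability read as luminescence once Cell-Titer Glo 2.0 reagent was added to drug-treated cells in 384-well plates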
# Experimental: as §2
# [7] = test system: six hepatoblastoma cell cultures; assay: Cell proliferation study, six hepatoblastoma cell cultures together; type: cell-based, human
# Experimental: as §1
# PLK3 = test system: PLK3; parameters: method as in PMID 19383823; settings: read-out: cell-free enzyme IC50, PLK3; cited from earlier work
# PLK1 = test system: PLK1; parameters: method as in PMID 19383823; settings: read-out: cell-free enzyme IC50, PLK1; cited from earlier work
# [8] = volasertib; cited from earlier work
# SMMC7721 = test system: SMMC7721; parameters: method as in PMID 27904765; settings: hepatocellular carcinoma cell line; cited from earlier work
# HB-284 = assay: Cell proliferation study, HB-284; type: cell-based, human; settings: 72 h drug exposure, Cell-Titer Glo, average of quadruplicates, read-out: absolute IC50, HB-284
# Experimental: as §1
# HB-282 = assay: Cell proliferation study, HB-282; type: cell-based, human; settings: 72 h drug exposure, Cell-Titer Glo, average of quadruplicates, read-out: absolute IC50, HB-282
# Experimental: as §1
# HepG2 = assay: 60-agent chemical screen, cell viability (Cell-Titer Glo), HepG2; type: cell-based; settings: Homo sapiens, 60-agent screen, 72 hours, a value of 10,000 indicates that the drug did not inhibit viability, read-out: absolute IC50, HepG2;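 further: luminescence read-out in 384-well plates, with cells plated directly onto drug dilutions of known concentration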
# Experimental: as §2
structure (smiles),measurement,setting,value
CC[C@@H]1C(=O)N(C)c2cnc(Nc3ccc(C(=O)N[C@H]4CC[C@H](N5CCN(CC6CC6)CC5)CC4)cc3OC)nc2N1C(C)C [volasertib],IC50,Huh-6,3820 nM
same,IC50,HB-279 [1]; Homo sapiens,2020 nM
same,tumor growth (mean tumor volume over time),HB-214 PDX,appreciable and cytostatic; also recorded: slowed
same,IC50,HB-295; Homo sapiens,1170 nM
same,IC50,"[2]; Homo sapiens, Hepatocyte, read-out: IC50, cancer cells",360 to 528 nM
same,IC50,HB-243; Homo sapiens,252 nM
same,IC50,PLK2,5 nM
same,Cmax,[3]; measured in clinical trials,1220 nM
same,IC50,"normal human hepatocytes; as restated in the discussion, read-out: IC50, normal hepatocytes",> 10000 nM
same,IC50,HB-214 [4],725 nM
same,Percent of cells in S phase,HB-279 [5],14.2%
same,Percent of cells in G2/M,HB-279 [5],40.7%
same,Percent of cells in G1,HB-279 [5],44.7%
same,cell cycle arrest as compared to vehicle control,HB-279 [5],cell cycle arrest in G2/M
same,IC50,SK-Hep1,7020 nM
same,IC50,HB-214 [6],360 nM
same,IC50,"[7]; Homo sapiens, range over HB-214, HB-243, HB-279, HB-282, HB-284, HB-295, read-out: IC50 across all six hepatoblastoma cell cultures",< 10000 nM
same,IC50,PLK3,56 nM
same,IC50,PLK1,0.87 nM
same,side effects,[8],neutropenia and anemia
same,IC50,SMMC7721,3970 nM
same,IC50,HB-284; Homo sapiens,3300 nM
same,IC50,HB-282; Homo sapiens,2130 nM
same,IC50,HepG2,528 nM
CC(=O)Nc1cccc(-n2c(=O)n(C3CC3)c(=O)c3c(Nc4ccc(I)cc4F)n(C)c(=O)c(C)c32)c1 [trametinib],IC50,Huh-6,> 10000 nM
same,effectiveness across the three hepatoblastoma cell lines,[2]; 60-agent screen,only effective in one cell line out of three
same,IC50,"normal human hepatocytes; 60-agent screen, 72 hours, a value of 10,000 indicates that the drug did not inhibit viability, read-out: absolute IC50, Hepatocytes",> 10000 nM
same,IC50,HB-214 [6],210 nM
same,IC50,HepG2,> 10000 nM
CC[C@]1(O)C[C@H]2CN(CCc3c([nH]c4ccccc34)[C@@](C(=O)OC)(c3cc4c(cc3OC)N(C=O)[C@H]3[C@@](O)(C(=O)OC)[C@H](OC(C)=O)[C@]5(CC)C=CCN6CC[C@]43[C@@H]65)C2)C1 [vincristine],Cmax,[3]; published Cmax of vincristine,90 nM
same,sensitivity of hepatoblastoma cell lines to vincristine,"[7]; 72hr drug exposure, Supplementary Figure 4",Several cell lines were highly resistant
CCc1c2c(nc3ccc(O)cc13)-c1cc3c(c(=O)n1C2)COC(=O)[C@]3(O)CC [SN38],IC50,HB-279 [1],200 nM
same,IC50,HB-295,500 nM
same,IC50,HB-243,160 nM
same,AUC0-∞,"[3]; SN38, pediatric study",0.214 µM·h
same,Cmax,[3]; SN38 from clinical trials,120 nM
same,Percent of cells in S phase,HB-279 [5],17.7%
same,Percent of cells in G2/M,HB-279 [5],34.3%
same,Percent of cells in G1,HB-279 [5],47.6%
same,cell cycle arrest as compared to vehicle control,HB-279 [5],modest G2/M phase arrest
same,IC50,HB-284,210 nM
same,IC50,HB-282,26 nM
